The values below come from patent publication US5506361A, “Imidazobenzoquinones and composition for preventing or treating hypertension or congestive heart failure containing the same” (TheUpjohn Company, priority 1991, dated 1996).

The target of experiment [1] is angiotensin II mesenteric artery receptor. Nature of the experiment: In vitro angiotensin II mesenteric artery receptor binding assay. Conditions: test 1); 125I-Ang II 0.2 nM, rat mesenteric artery membrane fraction, 22° C., 90 min. As for the experimental part: 1) In vitro angiotensin II mesenteric artery receptor binding assay
According to the method (1) by Gunther et at., a membrane fraction was prepared from mesenteric artery of a male rat, 50 μg protein equivalent thereof and 0.2 nM ^125 I-Ang II as well as various concentrations of test compounds were incubated at 22° C. for 90 min. in 200 μl reaction volume of incubation buffer (50 mM Tris-HCl, 120 mM NaCl, 5 mM MgCl2, 0.25% bovine serum albumin, pH7.2). This was cooled, and the reaction was stopped by addition of ice-cooled phosphate buffer (10 mM phosphate, 140 mM NaCl, pH7.4, hereinafter referred to as PBS), and then the reaction solution was filtered through a glass fiber filter (Whatman CF/B), the filter was washed, dried, and then the radioactivity of captured ^125 I-angiotensin II which bound to the receptor was measured by γ-counter. Non-specific binding mount was obtained from the reaction in the presence of 1 μM of unlabeled angiotensin II. The test compound was tested at the concentration of 0.01 to 1 μM, and those that inhibited more than 50% of total specific binding mount at 1 μM was determined as an active compound, and 50% inhibiting concentration (IC50) was obtained [see Gunther, S., Gimbrone, M. A. and Alexander, R. W., Circ. Res., 17:278-286, 1980].

Experiment [2] has as its target adrenal cortex angiotensin II receptor. Nature of the experiment: In vitro adrenal cortex angiotensin II receptor binding assay. Conditions: test 2); membrane fraction from adrenal cortex of male rat. As for the experimental part: 2) In vitro adrenal cortex angiotensin II receptor binding assay
According to the method by Capponi et at. (1), angiotensin II receptor binding assay was carried out by preparing a membrane fraction from an adrenal cortex of a male rat and using this as a receptor material in the same manner as in the above-described pharmacological test 1) [see Capponi, A. M. and Catt, K., J. Biol. Chem. 254:5120-5127(1979)].

Experiment [3] has as its system angiotensin II constriction in isolated rabbit thoracic aorta. Kind of experiment: Antagonism to angiotensin II constriction in an isolated rabbit thoracic aorta. Type of experiment: cell-based. The following applies: test 3); 10^-6 M test compound, 20 min; pA2 = -logKB. The method, then: 3) Antagonism to angiotensin II constriction in an isolated rabbit thoracic aorta
A rectangular strip-like sample of thoracic aorta isolated from an anethetized rabbit was prepared, and this was suspended at 2.0 g of loaded tension in a Magnus tube filled with Krebs-Henseleitoid nutrition solution which was well aerated with 95% O2 -5% CO2, and the constriction tension was measured using an isometric transducer. After the tension of the sample at rest became stable, accumulative administration of angiotensin II was carried out to obtain a concentration-action curve. Thereafter, the sample was washed with the same nutrition solution, and then 10^-6 M test compound was treated for 20 min. to obtain again a concentration-action curve of angiotertsin II. The results were obtained as followed: generated maximum tension at the first accumulative administration of angiotensin II was regarded as 100%, and the 50% effective concentration (ED50) was obtained in the presence or absence of the test compound, and pA2 value was calculated according to the following equations:
pA2 =-logKB KB =C/{(A'/A)-1}
C: concentration of the test compound (M)
A': ED50 in the presence of test compound (M)
A:ED50 in the absence of the test compound (M)

In experiment [4] the test system is blood pressure increasing by angiotensin II. Kind of experiment: Antagonism to blood pressure increasing by angiotensin II in a spine destroyed rat. The class given is in vivo, Wistar rat. Conditions: Rattus norvegicus; test 4); intravenous; 3 μg/kg angiotensin II i.v.; inhibition of blood pressure increase. An excerpt: 4)Antagonism to blood pressure increasing by angiotensin II in a spine destroyed rat
Wistar rat anesthetized with pentobarbital was fixed at dorsal position, and a cannula for measuring blood pressure was inserted into sinister arteria carotis communis, and a cannula for administration of the test compound into dexter external jugular vein and a cannula for administration of angiotensin II into sinister external jugular vein, arebilateral nervous vagus was cut, and artificial respiration was carried out. A thin bar made of metal was stabbed into spinal column through sininster orbita to destroy spine. Blood pressure was recorded on polygraph via pressure transducer from an arterial cannula. After blood pressure was stable for more than 30 min., 3μg/kg of angiotensin II was administered intravenously four times every 15 min., and every 5 min. before the administration of angiotensin II from the second admininstration onward, a solvent, a lower dose of the test compound, and a higher dose of the test compound were admininstered intravenously in this order to observe the blood pressure increasing response by angiotensin II. ED50 values were calculated from the inhibiting rate when the first blood pressure increase by angiotensin II was regarded as 100%.

Take `CCCCc1nc2c(n1Cc1ccc(-c3ccccc3C(=O)O)cc1)C(=O)c1ccccc1C2=O` [Compound No. 1, 1-[(2'-Carboxybiphenyl-4-yl)methyl]-2-n-butyl-1H-naphthimidazol-4,9-dione]: the IC50 in experiment [1] is 610 nM; in experiment [2] it was 540 nM. Also, the pA2 in experiment [3] was determined as 6.64. The ED50 in experiment [4] is 22.6 mg/kg.

With `CCCCc1nc2c(n1Cc1ccc(-c3ccccc3C(=O)OC(C)(C)C)cc1)C(=O)c1ccccc1C2=O` [Compound No. 2, 1-[(2'-t-Butoxycarbonylbiphenyl-4-yl)methyl]-2-n-butyl-1H-naphthimidazol-4,9-dione], the IC50 in experiment [1] is 50 nM; in experiment [2], 48 nM. For the same molecule, the pA2 in experiment [3] was 7.60.
